Source: PubChem BioAssay AID1963958 (Molecular Pharmacology Branch, DTP, NCI, 2024)

Tested on: MDA-MB-231 multicell spheroids, viability
Assay: Anticancer human tumor MDA-MB-231 cell line growth inhibition [PI3K];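 further: spheroids exposed to agents for seven days before reading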;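 on viability, T/C: percent of vehicle control luminescence with DMSO treated spheroids as 100%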
Conditions: for IC50: curve of first compound; for viability, T/C: stronger effect = lower value
Procedure, shortened: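 Spheroid viability read-out. Co-cultures contained the tumor line plus HUVEC and human MSCs. Each agent was paired with a PI3K inhibitor (inavolisib, alpelisib, duvelisib, copanlisib) across half-log dilutions starting at clinical Cmax, or at 10 microM when Cmax was unknown.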

Q: For `C#Cc1c(F)ccc2cc(O)cc(-c3ncc4c(N5CC6CCC(C5)N6)nc(OCC56CCCN5CC(F)C6)nc4c3F)c12` (configuration not stated) + COc1c(OCCCN2CCOCC2)ccc2c3n(c(=NC(=O)c4cnc(N)nc4)nc12)CCN3, which IC50 (second compound 0.00316 µM) is on record?
A: Its IC50 is greater than 10000 nM.

Q: What about the IC50 (second compound 0.01 µM) of the same compound?
A: Its IC50 is 8600 nM.

Q: And the IC50 (second compound 0.0316 µM)?
A: The IC50 was 2020 nM.

Q: And the IC50 (second compound 0.1 µM)?
A: Its IC50 is less than 31.6 nM.

Q: What about the IC50 (second compound 0.316 µM) of the same compound?
A: Its IC50 is less than 31.6 nM.

Q: What about the IC50 (second compound 1 µM) of the same compound?
A: Its IC50 is less than 31.6 nM.

Q: What about the viability, T/C (second compound 0.00316 µM, first compound 0.0316 µM) of the same compound?
A: Its viability, T/C is 96%.

Q: And the viability, T/C (second compound 0.00316 µM, first compound 0.1 µM)?
A: The viability, T/C was 101%.

Q: What about the viability, T/C (second compound 0.00316 µM, first compound 0.316 µM) of the same compound?
A: Its viability, T/C is 81.7%.

Q: And the viability, T/C (second compound 0.00316 µM, first compound 1 µM)?
A: Its viability, T/C is 88.4%.

Q: What about the viability, T/C (second compound 0.00316 µM, first compound 3.16 µM) of the same compound?
A: The viability, T/C was 78.4%.

Q: What about the viability, T/C (second compound 0.00316 µM, first compound 10 µM) of the same compound?
A: The viability, T/C was 52.7%.

Q: And the viability, T/C (second compound 0.01 µM, first compound 0.0316 µM)?
A: Its viability, T/C is 77.9%.

Q: And the viability, T/C (second compound 0.01 µM, first compound 0.1 µM)?
A: Its viability, T/C is 77.8%.

Q: And the viability, T/C (second compound 0.01 µM, first compound 0.316 µM)?
A: The viability, T/C was 72.9%.

Q: What about the viability, T/C (second compound 0.01 µM, first compound 1 µM) of the same compound?
A: The viability, T/C was 74.2%.

Q: What about the viability, T/C (second compound 0.01 µM, first compound 3.16 µM) of the same compound?
A: The viability, T/C was 66.3%.

Q: And the viability, T/C (second compound 0.01 µM, first compound 10 µM)?
A: Its viability, T/C is 47.5%.

Q: And the viability, T/C (second compound 0.0316 µM, first compound 0.0316 µM)?
A: Its viability, T/C is 60.6%.

Q: What about the viability, T/C (second compound 0.0316 µM, first compound 0.1 µM) of the same compound?
A: The viability, T/C was 56.3%.

Q: What about the viability, T/C (second compound 0.0316 µM, first compound 0.316 µM) of the same compound?
A: Its viability, T/C is 60.5%.

Q: What about the viability, T/C (second compound 0.0316 µM, first compound 1 µM) of the same compound?
A: The viability, T/C was 54.6%.

Q: What about the viability, T/C (second compound 0.0316 µM, first compound 3.16 µM) of the same compound?
A: The viability, T/C was 45.7%.

Q: What about the viability, T/C (second compound 0.0316 µM, first compound 10 µM) of the same compound?
A: Its viability, T/C is 35%.

Q: What about the viability, T/C (second compound 0.1 µM, first compound 0.0316 µM) of the same compound?
A: Its viability, T/C is 47%.

Q: And the viability, T/C (second compound 0.1 µM, first compound 0.1 µM)?
A: The viability, T/C was 46.7%.

Q: What about the viability, T/C (second compound 0.1 µM, first compound 0.316 µM) of the same compound?
A: The viability, T/C was 46.9%.

Q: And the viability, T/C (second compound 0.1 µM, first compound 1 µM)?
A: Its viability, T/C is 40.8%.

Q: And the viability, T/C (second compound 0.1 µM, first compound 3.16 µM)?
A: The viability, T/C was 33%.

Q: What about the viability, T/C (second compound 0.1 µM, first compound 10 µM) of the same compound?
A: The viability, T/C was 21.5%.

Q: What about the viability, T/C (second compound 0.316 µM, first compound 0.0316 µM) of the same compound?
A: The viability, T/C was 32.2%.

Q: What about the viability, T/C (second compound 0.316 µM, first compound 0.1 µM) of the same compound?
A: The viability, T/C was 31.5%.

Q: And the viability, T/C (second compound 0.316 µM, first compound 0.316 µM)?
A: The viability, T/C was 26.4%.

Q: What about the viability, T/C (second compound 0.316 µM, first compound 1 µM) of the same compound?
A: The viability, T/C was 23.4%.

Q: What about the viability, T/C (second compound 0.316 µM, first compound 3.16 µM) of the same compound?
A: The viability, T/C was 18.1%.

Q: What about the viability, T/C (second compound 0.316 µM, first compound 10 µM) of the same compound?
A: The viability, T/C was 13.3%.

Q: What about the viability, T/C (second compound 1 µM, first compound 0.0316 µM) of the same compound?
A: The viability, T/C was 24.8%.

Q: What about the viability, T/C (second compound 1 µM, first compound 0.1 µM) of the same compound?
A: The viability, T/C was 23.1%.

Q: What about the viability, T/C (second compound 1 µM, first compound 0.316 µM) of the same compound?
A: Its viability, T/C is 20.2%.

Q: And the viability, T/C (second compound 1 µM, first compound 1 µM)?
A: Its viability, T/C is 16.8%.

Q: And the viability, T/C (second compound 1 µM, first compound 3.16 µM)?
A: The viability, T/C was 15.1%.

Q: And the viability, T/C (second compound 1 µM, first compound 10 µM)?
A: The viability, T/C was 10.4%.
